Experimental data as given in PubChem BioAssay (NCI).
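Dose response: 5 concentrations. Exposure: 48 h. Format: 96-well plates. Endpoint: linear interpolation; highest concentration if not reached. GI50 is the concentration that inhibits growth by half. Definition used: TGI = concentration required for complete inhibition of growth.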

Tests used:
Experiment in all cases: NCI tumour cell line growth inhibition, 48 h
786-0 renal = tested on: 786-0 renal
ACHN renal = tested on: ACHN renal
CAKI-1 renal = tested on: CAKI-1 renal
HCT-116 colon = tested on: HCT-116 colon
HOP-92 NSCLC = tested on: HOP-92 NSCLC
K-562 leukemia = tested on: K-562 leukemia
KM12 colon = tested on: KM12 colon
MALME-3M melanoma = tested on: MALME-3M melanoma
OVCAR-3 ovarian = tested on: OVCAR-3 ovarian
RPMI-8226 leukemia = tested on: RPMI-8226 leukemia

| SMILES | TGI (786-0 renal) [µM] | TGI (ACHN renal) [µM] | TGI (CAKI-1 renal) [µM] | TGI (HCT-116 colon) [µM] | TGI (HOP-92 NSCLC) [µM] | TGI (K-562 leukemia) [µM] | TGI (KM12 colon) [µM] | TGI (MALME-3M melanoma) [µM] | TGI (OVCAR-3 ovarian) [µM] | TGI (RPMI-8226 leukemia) [µM] | GI50 (ACHN renal) [µM] | GI50 (CAKI-1 renal) [µM] | GI50 (HOP-92 NSCLC) [µM] | GI50 (K-562 leukemia) [µM] | GI50 (KM12 colon) [µM] | GI50 (MALME-3M melanoma) [µM] | GI50 (OVCAR-3 ovarian) [µM] | GI50 (RPMI-8226 leukemia) [µM] |
| --- | --- | --- | --- | --- | --- | --- | --- | --- | --- | --- | --- | --- | --- | --- | --- | --- | --- | --- |
| CC(=O)OCC1OC(OCC2OC(N3C(=S)N[C@H]([C@@H](O)[C@H](O)[C@H](O)CO)[C@H]3O)C(OC(C)=O)C(OC(C)=O)C2OC(C)=O)C(OC(C)=O)C(OC(C)=O)C1OC(C)=O (stereo partly drawn) | > 100 | > 100 | > 100 | > 100 | > 100 | > 100 | > 100 | > 100 | > 100 | > 100 |  |  |  |  |  |  |  |  |
| O=C1C[C@H](c2ccccc2)C2(C(=O)c3ccccc3C2=O)[C@@H](c2ccccc2)C1 |  |  | > 100 |  | 90.9 | > 100 |  | > 100 | > 100 | > 100 |  |  |  |  |  |  |  |  |
| CCCCCCC(CCl)c1sc(-c2csc(CCNC(=O)OC(C)(C)C)n2)nc1C(=O)OC (stereo not drawn) | 75.9 | 81.6 | > 100 | 31.6 | 69.7 | > 100 | 80.5 |  | 86.8 | > 100 |  |  |  |  |  |  |  |  |
| CC(=O)c1ccc(NC(=O)/C(=N\NC(N)=O)C(C#N)CC(C)(C)C=O)cc1 (stereo not drawn) |  | > 100 | > 100 | > 100 | > 100 | > 100 | > 100 |  |  | > 100 |  |  |  |  |  |  |  |  |
| C=CCN1CC2CN=NC2(C#N)C1 (stereo not drawn) | > 100 | > 100 | > 100 | > 100 |  | > 100 | > 100 | > 100 | > 100 |  |  |  |  |  |  |  |  |  |
| C[C@H](CC[C@@H](O)C(C)(C)O)[C@H]1CC[C@@]2(C)[C@@H]3CC=C4[C@@H](CC[C@H](OC5OC(CO)C(O)C(O)C5O)C4(C)C)[C@]3(C)C(=O)C[C@]12C (stereo partly drawn) | 70.5 | 98.5 | > 100 | > 100 | > 100 | > 100 | > 100 | > 100 | > 100 |  |  |  |  |  |  |  |  |  |
| CC1(C)Oc2ccc(Cl)cc2C12CC2 | 31.3 | 30.1 | 31.2 | 29 |  | 39.2 | 53.1 | 43.2 | 26.7 | > 100 |  |  |  |  |  |  |  |  |
| CC(NC(=O)C(C)C(=O)NCc1ccc(C(F)(F)F)cc1)C(N)=O (stereo not drawn) | > 100 | > 100 | > 100 | > 100 | > 100 | > 100 | > 100 | > 100 |  | > 100 |  |  |  |  |  |  |  |  |
| Oc1c(I)cc(I)cc1CNCCCN(Cc1ccccn1)Cc1ccccn1 |  | 1.65 | 1.74 |  | 2.48 | 50 | 1.97 | 1.73 | 1.85 | 4.47 | 0.912 | 0.896 | 0.985 | 1.71 | 0.986 | 0.873 | 0.948 | 1.34 |
| C=C(C)CC1=C(C(=S)NCCO[Si](C)(C)C(C)(C)C)C(OCC)(OCC)C1=O | 33.1 | 33.8 | 31.9 | 50 | > 100 |  | 45.9 | 27.1 |  |  |  |  |  |  |  |  |  |  |
| O=C1CCC2=C(CCC2)N1CCc1ccc2c(c1)OCO2 | > 100 | > 100 | > 100 | > 100 |  | > 100 | > 100 | > 100 |  | 45.1 |  |  |  |  |  |  |  |  |
